The numbers were not newly measured in patent publication US20060154930A1, “Substituted amino heterocycles as vr-1 antagonists for treating pain” (priority 2003, published 2006), which cites them from elsewhere.

The target of the data set is VR1 (Rattus norvegicus, UniProt O35433). Conditions: Wahl et al., Mol. Pharmacol, 59:9, 2001.
Chain of VR1 (O35433 whole entry): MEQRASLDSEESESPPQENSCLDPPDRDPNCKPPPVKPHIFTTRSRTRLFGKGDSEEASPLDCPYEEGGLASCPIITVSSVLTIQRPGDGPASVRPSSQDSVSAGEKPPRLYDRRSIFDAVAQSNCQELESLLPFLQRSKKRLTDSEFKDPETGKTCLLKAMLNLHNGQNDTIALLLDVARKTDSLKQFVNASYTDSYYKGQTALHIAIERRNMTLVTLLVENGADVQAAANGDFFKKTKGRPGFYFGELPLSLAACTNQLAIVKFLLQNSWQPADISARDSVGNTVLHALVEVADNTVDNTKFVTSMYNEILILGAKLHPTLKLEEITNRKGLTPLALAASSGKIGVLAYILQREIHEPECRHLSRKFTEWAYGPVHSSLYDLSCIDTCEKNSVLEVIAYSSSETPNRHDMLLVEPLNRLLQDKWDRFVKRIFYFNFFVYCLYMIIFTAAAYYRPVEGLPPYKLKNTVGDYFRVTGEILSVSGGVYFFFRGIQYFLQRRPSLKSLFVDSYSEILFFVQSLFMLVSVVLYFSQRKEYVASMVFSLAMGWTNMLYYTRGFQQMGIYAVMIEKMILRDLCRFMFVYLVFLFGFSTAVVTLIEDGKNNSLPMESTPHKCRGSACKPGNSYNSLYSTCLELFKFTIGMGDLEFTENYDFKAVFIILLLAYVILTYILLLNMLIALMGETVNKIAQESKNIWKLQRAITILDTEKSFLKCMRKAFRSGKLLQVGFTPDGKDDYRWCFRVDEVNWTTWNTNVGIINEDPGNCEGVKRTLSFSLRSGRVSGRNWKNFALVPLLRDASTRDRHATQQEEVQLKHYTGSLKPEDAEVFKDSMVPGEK

In the case of `C=C(C)[C@]12C[C@@H](C)[C@@]34O[C@](Cc5ccccc5)(O[C@@H]1[C@@H]3C=C(COC(=O)Cc1cc(I)c(O)c(OC)c1)C[C@]1(O)C(=O)C(C)=C[C@@H]41)O2` [Iodo-resiniferatoxin], the “VR1 antagonist potency (in words)” value was “nanomolar antagonist”.
